The values below come from US10098938B2, “Peptides and combination of peptides for use in immunotherapy against various cancers” (immatics biotechnologies GmbH, priority 2015, dated 2018).

For one assay, the system named is CD8+ T cells. Put plainly: In vitro immunogenicity: T-cell priming with aAPCs loaded with peptide/MHC and anti-CD28, pMHC multimer readout. Particulars: in vitro immunogenicity of HLA class I peptides; pMHC multimer readout after T-cell priming. The format is cell-based, human. The text has this:
In order to obtain information regarding the immunogenicity of the TUMAPs of the present invention, the inventors performed investigations using an in vitro T-cell priming assay based on repeated stimulations of CD8+ T cells with artificial antigen presenting cells (aAPCs) loaded with peptide/MHC complexes and anti-CD28 antibody.
In order to perform in vitro stimulations by artificial antigen presenting cells loaded with peptide-MHC complex (pMHC) and anti-CD28 antibody, the inventors first isolated CD8+ T cells from fresh HLA-A*02 leukapheresis products via positive selection using CD8 microbeads (Miltenyi Biotec, Bergisch-Gladbach, Germany) of healthy donors obtained from the University clinics Mannheim, Germany, after informed consent.
PBMCs and isolated CD8+ lymphocytes were incubated in T-cell medium (TCM) until use consisting of RPMI-Glutamax (Invitrogen, Karlsruhe, Germany) supplemented with 10% heat inactivated human AB serum (PAN-Biotech, Aidenbach, Germany), 100 U/ml Penicillin/100 μg/ml Streptomycin (Cambrex, Cologne, Germany), 1 mM sodium pyruvate (CC Pro, Oberdorla, Germany), 20 μg/ml Gentamycin (Cambrex). 2.5 ng/ml IL7 (PromoCell, Heidelberg, Germany) and 10 U/ml IL-2 (Novartis Pharma, Nürnberg, Germany) were also added to the TCM at this step.
Generation of pMHC/anti-CD28 coated beads, T-cell stimulations and readout was performed in a highly defined in vitro system using four different pMHC molecules per stimulation condition and 8 different pMHC molecules per readout condition.
The purified co-stimulatory mouse IgG2a anti human CD28 Ab 9.3 (Jung et al., 1987) was chemically biotinylated using Sulfo-N-hydroxysuccinimidobiotin as recommended by the manufacturer (Perbio, Bonn, Germany). Beads used were 5.6 μm diameter streptavidin coated polystyrene particles (Bangs Laboratories, Illinois, USA).
pMHC used for positive and negative control stimulations were A*0201/MLA-001 (peptide […] (SEQ ID NO. 303) from modified Melan-A/MART-1) and A*0201/DDX5-001 ([…] from DDX5, SEQ ID NO. 304), respectively.
800.000 beads/200 μl were coated in 96-well plates in the presence of 4×12.5 ng different biotin-pMHC, washed and 600 ng biotin anti-CD28 were added subsequently in a volume of 200 μl. Stimulations were initiated in 96-well plates by co-incubating […] CD8+ T cells with 2×10^5 washed coated beads in 200 μl TCM supplemented with 5 ng/ml IL-12 (PromoCell) for 3 days at 37° C. Half of the medium was then exchanged by fresh TCM supplemented with 80 U/ml IL-2 and incubating was continued for 4 days at 37° C. This stimulation cycle was performed for a total of three times. For the pMHC multimer readout using 8 different pMHC molecules per condition, a two-dimensional combinatorial coding approach was used as previously described (Andersen et al., 2012) with minor modifications encompassing coupling to 5 different fluorochromes. Finally, multimeric analyses were performed by staining the cells with Live/dead near IR dye (Invitrogen, Karlsruhe, Germany), CD8-FITC antibody clone SK1 (BD, Heidelberg, Germany) and fluorescent pMHC multimers. For analysis, a BD LSRII SORP cytometer equipped with appropriate lasers and filters was used. Peptide specific cells were calculated as percentage of total CD8+ cells. Evaluation of multimeric analysis was done using the FlowJo software (Tree Star, Oregon, USA). In vitro priming of specific multimer+ CD8+ lymphocytes was detected by comparing to negative control stimulations.

In the next assay the target is HLA-A*02 (Homo sapiens, UniProt P04439, D140Y/D185E/D98H/E176V/E277Q/G131W/G231S/I119V/I121R/I166T/I218V/L300P/N151K/N90K/P208A/P217A/Q86G/Q94H/R138H/R169H). Put plainly: MHC binding assay, UV-ligand exchange with β2m ELISA, HLA-A*02. Particulars: binding to HLA-A*02 ranged by peptide exchange yield. From the text: Candidate peptides for T cell based therapies according to the present invention were further tested for their MHC binding capacity (affinity). The individual peptide-MHC complexes were produced by UV-ligand exchange, where a UV-sensitive peptide is cleaved upon UV-irradiation, and exchanged with the peptide of interest as analyzed. Only peptide candidates that can effectively bind and stabilize the peptide-receptive MHC molecules prevent dissociation of the MHC complexes. To determine the yield of the exchange reaction, an ELISA was performed based on the detection of the light chain (β2m) of stabilized MHC complexes. The assay was performed as generally described in Rodenko et al. (Rodenko et al., 2006).
96 well MAXISorp plates (NUNC) were coated over night with 2 ug/ml streptavidin in PBS at room temperature, washed 4× and blocked for 1 h at 37° C. in 2% BSA containing blocking buffer. Refolded HLA-A*02:01/MLA-001 monomers served as standards, covering the range of 15-500 ng/ml. Peptide-MHC monomers of the UV-exchange reaction were diluted 100 fold in blocking buffer. Samples were incubated for 1 h at 37° C., washed four times, incubated with 2 ug/ml HRP conjugated anti-β2m for 1 h at 37° C., washed again and detected with TMB solution that is stopped with […]. Absorption was measured at 450 nm. Candidate peptides that show a high exchange yield (preferably higher than 50%, most preferred higher than 75%) are generally preferred for a generation and production of antibodies or fragments thereof, and/or T cell receptors or fragments thereof, as they show sufficient avidity to the MHC molecules and prevent dissociation of the MHC complexes.
Background: ELISA stands for enzyme-linked immunosorbent assay.

Take “4 (KLMPGTYTL; listed as Homo sapiens) [compound 4]”: the “Wells positive [%]” value in the assay with CD8+ T cells is on record as “+ (<20% = +)”. The Peptide exchange entry with HLA-A*02 is listed as “++++ (> = 75% = ++++)”.
The matching figures for “249 (GLCERLVSL; listed as Homo sapiens) [compound 249]”: “+ (<20% = +)” and “++++ (> = 75% = ++++)”.
